Experiment in all cases: NCI-60 cell line screen, 48 h
In assay [1] the test system is SN12C renal.
Assay [2] deals with SF-268 CNS.
Assay [3] has as its system K-562 leukemia.
The test system of assay [4] is T-47D breast.
The test system of assay [5] is RPMI-8226 leukemia.
Assay [6] deals with OVCAR-4 ovarian.
Assay [7] deals with HCT-15 colon.
In assay [8] the test system is A498 renal.
The test system of assay [9] is OVCAR-3 ovarian.
Assay [10] relates to HOP-92 NSCLC.

Each structure is given as a SMILES string.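 Method: 48-hour compound exposure of cells in 96-well plates, five concentrations, linear interpolation of endpoints. Here, GI50 denotes the concentration required for 50% inhibition of growth. TGI: concentration producing complete growth inhibition.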

Turning to `COc1ccc2c(c1)nc(N)c1c3cccnc3cn21`, the GI50 in assay [1] was 0.382 µM; in assay [2], 0.0917 µM; in assay [3], 0.038 µM; in assay [4] it was 6.75 µM; in assay [5], 0.0546 µM; in [6], 0.294 µM. For the same compound, the GI50 is 0.0456 µM in assay [7] and 0.0339 µM in assay [8]. Moreover, the TGI in assay [1] was over 100 µM; in [2] it was 76.9 µM; in assay [3], 24.9 µM; in assay [4], 33.4 µM; in [5] it was 34.2 µM; in assay [6], over 100 µM. Further, the figures for the TGI in assay [7] and in assay [8] were 33.7 µM and 3.04 µM, respectively.

For `CCOC(=O)c1c(C)n(Cc2ccc(Cl)cc2Cl)c2c1cc1oc(=O)c(=O)n3c(Cc4ccccc4)nc2c13`, the GI50 in [9] is 1.91 µM; in assay [1] it was 2.22 µM; in [2], 2.31 µM; in assay [3] it was 3.13 µM; in assay [4], 4.9 µM; in assay [10], 1.56 µM. In addition, the GI50 in assay [5] is 1.71 µM; in assay [6] it was 4.45 µM; in assay [7] it was 3.92 µM. The TGI in [9] was determined as 4.44 µM; in assay [1] it was 4.56 µM; in assay [2] it was 5.84 µM; in [3] it was 7.18 µM; in assay [4], 22.2 µM; in assay [10], 3.81 µM. Moreover, the TGI in [5] was 3.57 µM; in [6], 16.4 µM; in assay [7], 14.8 µM.

As for `CN(C)c1ccc(N=Nc2c([O-])ccc3ccccc23)cc1.[C-]#[O+].[C-]#[O+].[Ir]`, the GI50 in assay [9] was 20.7 µM; in assay [1], 17 µM; in assay [2], 26.9 µM; in assay [3] it was 29.4 µM; in assay [10], 2.72 µM; in [5], 22.7 µM. For the same compound, the GI50 is 25.4 µM in [6], 18.5 µM in assay [7] and over 100 µM in assay [8]. For the same compound, the TGI in [9] is 45.6 µM; in assay [1], 34.5 µM; in [2] it was 76.6 µM; in assay [3], over 100 µM; in assay [10], 8.64 µM; in assay [5], over 65.1 µM. The TGI was 47.8 µM in assay [6], 34.9 µM in assay [7] and over 100 µM in [8].

On to `N#Cc1ccccc1NC(=O)c1ccccc1`, for which the TGI in assay [9], in assay [1], in [2], in assay [3], in assay [10] and in assay [5] was over 100 µM in each case. In addition, the TGI in [6], in assay [7] and in [8] was over 100 µM in each case.

Turning to `O=C(O)c1c[nH]cc1C(=O)O`, the TGI in [9], in [1], in [2], in [3], in assay [10] and in assay [5] was over 100 µM each time. For the same compound, the TGI in [6], in [7] and in [8] was over 100 µM throughout.

Regarding `Cc1cn2c(/C=N/N/C(N)=N\N)c(-c3ccc(Cl)c([N+](=O)[O-])c3)nc2s1`, the GI50 is 0.865 µM in assay [9]; 1.27 µM in assay [1]; 1.03 µM in assay [2]; 2.17 µM in [3]; 0.878 µM in assay [4]; 2.55 µM in [10]. Also, the GI50 in assay [5] is 4.54 µM; in assay [7] it was 0.968 µM; in [8], 7.58 µM. For the same compound, the TGI in [9] was 1.75 µM; in [1], 4.09 µM; in assay [2], 2.37 µM; in assay [3], over 50 µM; in [4], 2.48 µM; in [10], 13.3 µM. The TGI in assay [5] is over 50 µM; in assay [7], 2.04 µM; in [8] it was 21.5 µM.

As for `O=C(Nc1cc(Cl)c(Cl)cc1Cl)C(=O)C(C(=O)c1ccc(Cl)c(Cl)c1)C1OC(=O)c2ccccc21` (configuration not stated), the TGI in assay [9] turned out to be 32.6 µM; in [1] it was 52.3 µM; in assay [2] it was 41.8 µM; in assay [3] it was 63.9 µM; in assay [10], 31.4 µM; in assay [5], 86.7 µM. The TGI is 77.8 µM in assay [6], 40.3 µM in assay [7] and 41.9 µM in [8].

On to `O=c1[nH]cc(OCC(F)(F)F)c(=O)[nH]1`, for which the TGI in assay [9], in [1], in [2], in assay [3], in assay [10] and in assay [5] was over 100 µM in each case. Further, the TGI in [6], in [7] and in [8] was over 100 µM throughout.

Consider `S=c1ssc(Sc2ccccn2)c1Cl`, for which the GI50 was 13.2 µM in [9]; 13.2 µM in assay [1]; 13.5 µM in assay [2]; 3.63 µM in [3]; 17 µM in [4]; 12.6 µM in [10]. Also, the GI50 in assay [5] was 1.56 µM; in assay [6], 5.2 µM; in assay [7], 5.26 µM. For the same compound, the TGI came to 25.9 µM in assay [9]; 25.9 µM in assay [1]; 26.4 µM in assay [2]; 14.5 µM in assay [3]; 34.6 µM in assay [4]; 26.8 µM in [10]. The TGI was 4.14 µM in assay [5], over 100 µM in assay [6] and 18.1 µM in assay [7].

As for `COc1ccc(-c2ccc(/C=N/n3c(COc4ccc(Cl)cc4)n[nH]c3=S)o2)c([N+](=O)[O-])c1`, the GI50 in assay [1] was 19.9 µM; in assay [2], 16.6 µM; in assay [3], 11.6 µM; in assay [4] it was 9.57 µM; in assay [10], 15.1 µM; in assay [6], 2.87 µM. Also, in assay [7], the GI50 is 16 µM. In addition, the TGI in assay [1] turned out to be 53.4 µM; in [2] it was 42.6 µM; in [3], 53.4 µM; in assay [4], 82.4 µM; in [10], 43.8 µM; in assay [6], 18.2 µM. Moreover, the TGI in assay [7] stood at 45.8 µM.

On to `N#CC1C(N)=NNC12Nc1ccccc1N2` (configuration not stated), for which the GI50 in [9] was 3.16 µM; in assay [3] it was 14 µM; in assay [4] it was 50.3 µM; in assay [10] it was 2.2 µM; in [5], 2.91 µM; in assay [6] it was 18 µM. The GI50 in [7] is 31.4 µM. For the same compound, the TGI is 19.4 µM in assay [9]; 78.6 µM in [3]; over 100 µM in assay [4]; 34.5 µM in assay [10]; 7.8 µM in assay [5]; 92.3 µM in [6]. In assay [7], this compound came in with a TGI of over 100 µM.

`O=C1CC2C(=O)N(Cc3ccccc3)C1C(S(=O)(=O)c1ccccc1)C2S(=O)(=O)c1ccccc1` (configuration not stated): the TGI amounted to 3.65 µM in [9]; 3.18 µM in assay [1]; 12.1 µM in assay [2]; 6.66 µM in [3]; 4.24 µM in [10]; 18.4 µM in assay [5]. Besides, the TGI in assay [6] came out at 4.74 µM; in assay [7], 2.91 µM; in assay [8], 32.2 µM.

On to `COc1cnc2c(c1)C(=O)c1c-2n(CCCN2CCCC2)c(=O)c2cc(Cl)ccc12`, for which the GI50 in [2] is 0.17 µM; in assay [3], 0.792 µM; in [4] it was 1.21 µM; in [10], 2.2 µM; in assay [5] it was 5.26 µM; in assay [6], 1.43 µM. Further, the GI50 in assay [7] was 1.73 µM; in assay [8], 0.384 µM. Also, the TGI stood at 9.38 µM in [2]; 11.4 µM in assay [3]; 18.9 µM in assay [4]; 12.1 µM in assay [10]; 16.3 µM in [5]; 11.2 µM in [6]. In addition, the TGI in assay [7] was 10.3 µM; in assay [8], 6.01 µM.

In the case of `C=C(C)[C@@H]1CC[C@@]2(C)[C@H]1[C@H]1CCC3[C@@]4(C)CC[C@H](O)C(C)(C)[C@@H]4CC[C@@]3(C)[C@]1(C)C[C@@H]2O` (some centres not stated), the TGI was over 100 µM in assay [9]; over 100 µM in assay [1]; over 100 µM in assay [2]; 47.7 µM in assay [3]; over 100 µM in [4]; over 100 µM in assay [10]. In addition, the TGI in assay [7] and in assay [8] was over 100 µM throughout.

Take `C[C@H](CSC(=O)c1ccccc1)C(=O)N1c2ccccc2C[C@H]1C(=O)O`: the TGI in assay [9], in assay [1], in assay [2], in assay [3], in assay [4] and in [6] was over 100 µM in each case. For the same compound, the TGI in assay [7] and in assay [8] was over 100 µM in each case.

As for `CC(C)[C@@H](COC(C)(C)C)N=CN1CCc2c([nH]c3ccccc23)C1`, the TGI is over 100 µM in [9]; over 100 µM in assay [1]; over 100 µM in [2]; over 100 µM in assay [3]; 89.6 µM in [10]; over 100 µM in assay [5]. Moreover, the TGI in [6], in assay [7] and in assay [8] was over 100 µM throughout.

For the compound `O=C(O)CCC1CCc2cccc3occ1c23` (configuration not stated), the TGI in assay [9], in [1], in [2], in [3], in [10] and in assay [5] was over 100 µM each time. Moreover, the TGI in assay [6], in assay [7] and in [8] was over 100 µM each time.

As for `CS(=O)(=O)Nc1cc(-c2ccc3ncnc(Nc4ccc5c(cnn5Cc5ccc(F)cc5)c4)c3c2)cnc1Cl`, the GI50 in [9] was 1.1 µM; in [1] it was 1.66 µM; in assay [2], 0.819 µM; in [3], 1.4 µM; in [4], 0.256 µM; in assay [6] it was 3.09 µM. For the same compound, the GI50 was 3.21 µM in assay [7] and 1.33 µM in assay [8]. Further, the TGI in [9] is 3.3 µM; in [1] it was 19.3 µM; in [2] it was 4.51 µM; in assay [3] it was 12.7 µM; in assay [4], 2.23 µM; in assay [6] it was 44 µM. Moreover, the TGI stood at 21.3 µM in assay [7] and 3.4 µM in [8].

Regarding `NCc1ccc(-n2c(-c3nonc3N)nc3cnccc32)cc1`, the GI50 in assay [9] was 7.13 µM; in assay [1] it was 7.61 µM; in assay [2] it was 5.26 µM; in assay [3] it was over 25 µM; in [4] it was 8.48 µM; in assay [5] it was over 23.2 µM. Besides, the figures for the GI50 in [6], in [7] and in assay [8] were over 25 µM, 6.85 µM and 1.38 µM, respectively. Also, the TGI in assay [9], in assay [1], in assay [2], in [3], in [4] and in assay [5] was over 25 µM each time. Further, the TGI was over 25 µM in assay [6], over 25 µM in assay [7] and over 22.1 µM in [8].

`CC1=CC(=O)C(C(C)=Nc2ccccc2Cl)C(=O)O1` (configuration not stated): the GI50 in assay [9] is over 100 µM; in assay [1], over 100 µM; in [2], over 100 µM; in assay [3], over 100 µM; in [4], over 100 µM; in [10], 94.4 µM. Moreover, the GI50 in assay [5], in assay [7] and in [8] was over 100 µM each time. Besides, the TGI in assay [9], in assay [1], in [2], in [3], in assay [4] and in assay [10] was over 100 µM throughout. The TGI in assay [5], in assay [7] and in assay [8] was over 100 µM in each case.

With `CCO[C@@H]1C2C=CC(C2)[C@H]1[N+](=O)[O-]` (some centres not stated), the TGI in [9], in assay [1], in assay [2], in assay [3], in assay [10] and in [5] was over 100 µM each time. For the same compound, the TGI in [6], in assay [7] and in [8] was over 100 µM in each case.

Values taken from PubChem BioAssay (NCI).
